The text below walks through data of ChEMBL document CHEMBL1127140, “Inhibition of human leukocyte elastase. 7. Inhibition by 6-substituted penicillin amides” (Bioorg Med Chem Lett, 1993).

One may read the Inhibition as the change of the read-out against control, counted positive when it falls. Lower therefore signals a weak effect. What is called half-life is how long it takes for the measured level to halve. High values mean slow loss, low ones fast loss. Usually Ki stands for the equilibrium dissociation constant of an inhibitor or competing ligand from its target.

Molecules are shown by their SMILES.

The test system of series [1] is Cricetinae gen. sp. The series is described as follows: Tested in vivo for inhibition of hamster lung hemorrhage after intratracheal administration at 3h prior to challenge with HLE (human leukocyte elastase). Type of series: functional, Cricetulus griseus.
Series [2] concerns Cricetinae gen. sp. The series is described as follows: Tested in vivo for inhibition of hamster lung hemorrhage after intratracheal administration at 1 hr prior to challenge with HLE (human leukocyte elastase). Type of series: functional, Cricetulus griseus.
Series [3] has as its system Cricetinae gen. sp. As to the kind of experiment: Tested in vivo for inhibition of hamster lung hemorrhage after intratracheal administration at 2 hr prior to challenge with HLE (human leukocyte elastase). Type of series: functional, Cricetulus griseus.
Series [4] deals with T1, Neutrophil elastase (Homo sapiens) (UniProt P08246).
T1 sequence (whole entry): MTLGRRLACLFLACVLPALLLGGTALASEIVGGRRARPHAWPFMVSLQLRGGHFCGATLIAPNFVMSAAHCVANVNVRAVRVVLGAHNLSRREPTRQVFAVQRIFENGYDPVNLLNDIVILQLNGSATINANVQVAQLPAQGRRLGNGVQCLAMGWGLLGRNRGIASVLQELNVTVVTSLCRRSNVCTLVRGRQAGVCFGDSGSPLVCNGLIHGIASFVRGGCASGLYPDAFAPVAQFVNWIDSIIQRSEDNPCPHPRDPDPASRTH
Description: Inhibition of Elastase using Suc-Ala-Ala-Pro-Ala-pNA as substrate, activity expressed as Kobs/[I] (second order rate constant)

Series [5] can be described thus: Tested for chemical stability of the compound. Type of series: physicochemical.
Series [6] concerns the target T2, Neutrophil elastase (Homo sapiens, UniProt P08246).
T2 sequence (P08246 whole entry): T1 sequence (whole entry)
As to the kind of experiment: Tested in vitro for its inhibitory effect against Elastase using Suc-Ala--Ala-Pro-Ala-pNA as substrate.

The test system of series [7] is Cricetinae gen. sp. As to the kind of experiment: Tested in vivo for inhibition of hamster lung hemorrhage after intratracheal administration at 3h prior to challenge with HLE(human leukocyte elastase). Type of series: functional, Cricetulus griseus.
For series [8], the target named is T1, Neutrophil elastase (Homo sapiens). As to the kind of experiment: Tested in vitro for its inhibitory effect against Human leukocyte elastase using Suc-Ala--Ala-Pro-Ala-pNA as substrate, activity expressed as Kobs/[I] (second order rate constant).

Turning to `CO[C@H]1C(=O)N2C(C(=O)N(C)CC(=O)O)=C(COC(C)=O)CS(=O)(=O)[C@H]12`, the Inhibition is given as 54% in series [1], 97% in series [2] and 80% in series [3].

`CC1(C)[C@H](C(=O)OCc2ccc(C(=O)O)cc2)N2C(=O)[C@@H](NC(=O)C(F)(F)F)[C@H]2S1(=O)=O` displayed a K obs / 1 in series [4] of 7100 M⁻¹ s⁻¹. In series [5], this compound showed a half-life of 1.1 h.

Compound `CC1(C)[C@H](C(=O)N2CCC[C@@H]2C(=O)O)N2C(=O)[C@H](NC(=O)C(F)(F)F)[C@H]2S1(=O)=O` registered a K obs / 1 in series [4] of 26 M⁻¹ s⁻¹.

In the case of `CC1(C)[C@H](C(=O)OCc2ccc(C(=O)O)cc2)N2C(=O)[C@H](NC(=O)C(F)(F)F)[C@H]2[S+]1[O-]` (stereo partly drawn), in series [6], the Ki stood at 1.5 µM. For the same compound, the half-life in series [5] was 1.4 h.

As to `CN(Cc1ccc(C(=O)O)cc1)C(=O)[C@@H]1N2C(=O)[C@@H](NC(=O)C(F)(F)F)[C@H]2S(=O)(=O)C1(C)C`, in series [4], the K obs / 1 stood at 275 M⁻¹ s⁻¹. Besides, the half-life in series [5] was 4.5 h.

Turning to `CN(CC(=O)O)C(=O)[C@@H]1N2C(=O)[C@H](NC(=O)C(F)(F)F)[C@H]2S(=O)(=O)C1(C)C`, the Ki in series [6] stood at 14 µM. Also, the half-life in series [5] is 4.8 h.

Take `CCO[C@H]1C(=O)N2[C@@H](C(=O)OCc3ccc(C(=O)O)cc3)C(C)(C)S(=O)(=O)[C@H]12`: the Ki in series [6] was found to be 1.3 µM. That is a single-digit micromolar value.

`CC1(C)[C@H](C(=O)OCc2ccc(C(=O)O)cc2)N2C(=O)[C@H](NC(=O)C(F)(F)F)[C@H]2S1(=O)=O` gave a K obs / 1 in series [4] of 89000 M⁻¹ s⁻¹. Further, the half-life in series [5] is 1.1 h.

On to `CN(Cc1ccc(C(=O)O)cc1)C(=O)[C@@H]1N2C(=O)[C@H](NC(=O)C(F)(F)F)[C@H]2S(=O)(=O)C1(C)C`, for which the K obs / 1 in series [4] amounted to 5400 M⁻¹ s⁻¹. The same compound showed a half-life in series [5] of 4.2 h.

Compound `CO[C@H]1C(=O)N2[C@@H](C(=O)N(C)CC(=O)O)C(C)(C)S(=O)(=O)[C@H]12` had a Ki in series [6] of 53 µM.

As to `CN(Cc1ccc(C(=O)O)cc1)C(=O)[C@@H]1N2C(=O)[C@H](NC(=O)C(F)(F)F)[C@H]2[S+]([O-])C1(C)C` (stereo partly drawn), the K obs / 1 in series [4] was determined as 60 M⁻¹ s⁻¹. In addition, the half-life in series [5] is 8.2 h.

The compound `CC1(C)[C@H](C(=O)N2CCC[C@@H]2C(=O)O)N2C(=O)[C@@H](NC(=O)C(F)(F)F)[C@H]2S1(=O)=O` registered a Ki in series [6] of 22 µM. In other words, the double-digit micromolar range.

Consider `CO[C@H]1C(=O)N2C(C(=O)N3CCC[C@H]3C(=O)O)=C(COC(C)=O)CS(=O)(=O)[C@H]12`, for which the figures for the Inhibition in series [7], in series [2] and in series [3] were 78%, 99% and 97%, respectively. Also, the K obs / 1 in series [4] amounted to 3800 M⁻¹ s⁻¹.

`CC1(C)[C@H](C(=O)OCc2ccc(C(=O)O)cc2)N2C(=O)[C@H](NC(=O)C(F)(F)F)[C@@H]2[S+]1[O-]` (stereo partly drawn) yielded a K obs / 1 in series [4] of 4900 M⁻¹ s⁻¹. This compound showed a half-life in series [5] of 5.3 h.

Take `CN(C(=O)C(F)(F)F)[C@H]1C(=O)N2[C@@H](C(=O)OCc3ccc(C(=O)O)cc3)C(C)(C)S(=O)(=O)[C@H]12`: the K obs / 1 in series [4] was found to be 5700 M⁻¹ s⁻¹.

`CN(Cc1ccc(C(=O)O)cc1)C(=O)[C@@H]1N2C(=O)[C@H](NC(=O)C(F)(F)F)[C@@H]2[S+]([O-])C1(C)C` (stereo partly drawn) yielded a K obs / 1 in series [4] of 1100 M⁻¹ s⁻¹. In series [5], the half-life is 8.6 h.

In turn, `CO[C@H]1C(=O)N2[C@@H](C(=O)OCc3ccc(C(=O)O)cc3)C(C)(C)S(=O)(=O)[C@H]12` came in with a K obs / 1 in series [8] of 5600 M⁻¹ s⁻¹. For the same compound, in series [5], the half-life was below 1 h.

As to `CN(CC(=O)O)C(=O)[C@@H]1N2C(=O)[C@@H](NC(=O)C(F)(F)F)[C@H]2S(=O)(=O)C1(C)C`, the affinity in series [6] corresponds to a Ki of 50 µM.
